Our source for the EC50 values is ChEMBL document CHEMBL1136400, “Substituted bridged phenyl piperidines: orally active growth hormone secretagogues” (Bioorg Med Chem Lett, 2003).

For the assay, the species on record is Rattus norvegicus. The assay can be described thus: Effective concentration for their ability to release growth hormone in the rat pituitary cell assay. It counts as functional, organism-based, Pituitary gland cell.
Where [1] appears, read: Rattus norvegicus, Pituitary gland cell.

Where only a bound is given, the exact number is not on record here.

As a reminder, the EC50 is the concentration needed to bring the measured effect to its halfway point. With `CC(C)(N)C(=O)N[C@H](Cc1c[nH]c2ccccc12)C(=O)N1C2CCC1CC(c1ccccc1)C2` (mixture of isomers), a half-maximal effect under setting [1] (EC50) was put at 0.0628 µM. Take `CCNC(=O)c1ccccc1C1CC2CCC(C1)N2C(=O)[C@@H](CCCc1ccccc1)NC(=O)C(C)(C)N` (mixture of isomers): a half-maximal effect under setting [1] (EC50) was put at 0.0013 µM. On the same count and under the same terms, with `Cc1ccccc1C1CC2CCC(C1)N2C(=O)[C@@H](CCCc1ccccc1)NC(=O)C(C)(C)N` (mixture of isomers) the figure was 0.0784 µM; with `CC(C)(N)C(=O)N[C@H](CCCc1ccccc1)C(=O)N1C2CCC1CC(c1ccccc1)C2` (mixture of isomers), 0.024 µM. The compound `Cc1ccccc1C1CC2CCC(C1)N2C(=O)[C@@H](Cc1c[nH]c2ccccc12)NC(=O)C(C)(C)N` (mixture of isomers) came in with an EC50 under setting [1] of 0.0332 µM.

Regarding `CCOC(=O)c1ccccc1C1CC2CCC(C1)N2C(=O)[C@@H](CCCc1ccccc1)NC(=O)C(C)(C)N` (mixture of isomers), for the setting “pituitary gland cell”, the EC50 was 0.09 µM.

Where the note is “pituitary gland cell”, `CCOC(=O)c1ccccc1C1CC2CCC(C1)N2C(=O)[C@@H](CCCc1ccccc1)NC(=O)C(C)(C)N` (stereo in doubt; 26f) yielded an EC50 of 0.048 µM. Where the note is “pituitary gland cell”, `CC(C)(N)C(=O)N[C@H](CCCc1ccccc1)C(=O)N1C2CCC1CC(c1ccccc1C(=O)O)C2` (stereo in doubt; 26g) had an EC50 of 0.0096 µM. Compound `CCOC(=O)c1ccccc1C1CC2CCC(C1)N2C(=O)[C@@H](CCCc1ccccc1)NC(=O)C(C)(C)N` (stereo in doubt; 26h) registered an EC50 (pituitary gland cell) of 0.324 µM. `CC(C)(N)C(=O)N[C@H](CCCc1ccccc1)C(=O)N1C2CCC1CC(c1ccccc1C(=O)O)C2` (stereo in doubt; 26i): where the note is “pituitary gland cell”, the EC50 was more than 0.5 µM. With `CC(C)(N)C(=O)N[C@H](COCc1ccccc1)C(=O)N1CCC2(CC1)CN(S(C)(=O)=O)c1ccccc12` [IBUTAMOREN], under setting [1], the concentration for a half-maximal effect (EC50) stood at 0.001 µM.
